ChEMBL document CHEMBL1201862, “PubChem BioAssay data set” (2004)
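Grown in 96-well plates, cells were treated for 48 hours with each compound at five concentrations. Insufficient inhibition: endpoint recorded as highest concentration tested. GI50: concentration for 50% inhibition of growth.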 Calls of active or inactive are those of the source. Cut-off read from the data, not from the text of the source: active = GI50 up to about 1.1 µM and inactive = higher.

Key:
Assay in all cases: NCI-60 cell line screen, 48 h
CCRF-CEM = test system: CCRF-CEM
EKVX = test system: EKVX
SK-OV-3 = test system: SK-OV-3
DMS-273 = test system: DMS-273
HOP-62 = test system: HOP-62
K562 = test system: K562
SF-539 = test system: SF-539
HT-29 = test system: HT-29
SNB-19 = test system: SNB-19
RPMI-8226 = test system: RPMI-8226
A498 = test system: A498
SK-MEL-28 = test system: SK-MEL-28
HOP-18 = test system: HOP-18
NCI-H460 = test system: NCI-H460
HCT-116 = test system: HCT-116
SR = test system: SR
UO-31 = test system: UO-31
XF498 = test system: XF498

With `CCOC(=O)NC(=O)c1cn(CCCOC(=O)NCCCCCCNC(=O)OCCCn2cc(C(=O)NC(=O)OCC)c(=O)[nH]c2=O)c(=O)[nH]c1=O` the GI50 (CCRF-CEM) was 5.4 µM (inactive), the GI50 (EKVX) was > 100 µM (inactive) and the GI50 (SK-OV-3) was 66.1 µM (inactive). The GI50 (DMS-273) was 30.7 µM (inactive), the GI50 (HOP-62) was 40.1 µM (inactive) and the GI50 (K562) was 7.67 µM (inactive). For the same molecule, the GI50 (SF-539) was 18.5 µM (inactive), the GI50 (HT-29) was 63.4 µM (inactive) and the GI50 (SNB-19) was 28.6 µM (inactive). The GI50 (RPMI-8226) was 14.1 µM (inactive), the GI50 (A498) was 22.8 µM (inactive) and the GI50 (SK-MEL-28) was 28.3 µM (inactive). For the same molecule, the GI50 (HOP-18) was 82.8 µM (inactive), the GI50 (NCI-H460) was 77.4 µM (inactive) and the GI50 (HCT-116) was 35.1 µM (inactive).
For `COC(=O)[C@H]1C=C[C@@H](C)n2c(=O)c3ccccc3c(=O)n21`, the GI50 (CCRF-CEM) was > 100 µM (inactive), the GI50 (EKVX) was > 100 µM (inactive) and the GI50 (SK-OV-3) was > 100 µM (inactive). The GI50 (DMS-273) was > 100 µM (inactive), the GI50 (HOP-62) was > 100 µM (inactive) and the GI50 (K562) was > 100 µM (inactive). The GI50 (SF-539) was > 100 µM (inactive), the GI50 (HT-29) was > 100 µM (inactive) and the GI50 (SNB-19) was > 100 µM (inactive). For the same molecule, the GI50 (RPMI-8226) was > 100 µM (inactive), the GI50 (A498) was > 100 µM (inactive) and the GI50 (SK-MEL-28) was > 100 µM (inactive). The GI50 (SR) was > 100 µM (inactive), the GI50 (NCI-H460) was > 100 µM (inactive) and the GI50 (HCT-116) was > 100 µM (inactive). The GI50 (UO-31) was > 100 µM (inactive) and the GI50 (XF498) was > 100 µM (inactive).
For `O=C(c1ccccc1)N1C2C3CC(OCc4ccccc4)(OCc4ccccc4)C(O3)C21` (configuration not stated), the GI50 (CCRF-CEM) was > 100 µM (inactive), the GI50 (EKVX) was > 100 µM (inactive) and the GI50 (SK-OV-3) was > 100 µM (inactive). The GI50 (HOP-62) was > 100 µM (inactive), the GI50 (K562) was 62.2 µM (inactive) and the GI50 (SF-539) was > 100 µM (inactive). The GI50 (SNB-19) was > 100 µM (inactive), the GI50 (RPMI-8226) was 54.2 µM (inactive) and the GI50 (A498) was > 100 µM (inactive). For the same molecule, the GI50 (SK-MEL-28) was > 100 µM (inactive), the GI50 (NCI-H460) was > 100 µM (inactive) and the GI50 (HCT-116) was > 100 µM (inactive). The GI50 (UO-31) was > 100 µM (inactive) and the GI50 (XF498) was > 100 µM (inactive).
With `COc1cc2c(c(OC)c1OC)-c1ccc(SC)c(=O)cc1[C@@H](NC(=O)c1cccc([N+](=O)[O-])c1)CC2` the GI50 (CCRF-CEM) was 0.0301 µM (active), the GI50 (EKVX) was 0.0386 µM (active) and the GI50 (SK-OV-3) was 0.021 µM (active). For the same molecule, the GI50 (DMS-273) was < 0.01 µM (active), the GI50 (HOP-62) was 0.0257 µM (active) and the GI50 (K562) was < 0.01 µM (active). The GI50 (SF-539) was 0.0171 µM (active), the GI50 (HT-29) was 0.0241 µM (active) and the GI50 (RPMI-8226) was 0.0208 µM (active). For the same molecule, the GI50 (A498) was 0.0198 µM (active), the GI50 (SK-MEL-28) was 0.0414 µM (active) and the GI50 (HCT-116) was 0.0174 µM (active). The GI50 (UO-31) was 0.0516 µM (active) and the GI50 (XF498) was 0.0205 µM (active).
`O=C1c2ccccc2C(=O)N1C/C=N/NS(=O)(=O)c1cccc([N+](=O)[O-])c1` was tested, and the GI50 (CCRF-CEM) was > 100 µM (inactive), the GI50 (EKVX) was > 100 µM (inactive) and the GI50 (DMS-273) was > 100 µM (inactive). The GI50 (HOP-62) was > 100 µM (inactive), the GI50 (K562) was > 100 µM (inactive) and the GI50 (SF-539) was > 100 µM (inactive). For the same molecule, the GI50 (HT-29) was > 100 µM (inactive), the GI50 (SNB-19) was > 100 µM (inactive) and the GI50 (RPMI-8226) was > 100 µM (inactive). The GI50 (A498) was > 100 µM (inactive), the GI50 (SR) was > 100 µM (inactive) and the GI50 (NCI-H460) was > 100 µM (inactive). The GI50 (HCT-116) was > 100 µM (inactive), the GI50 (UO-31) was > 100 µM (inactive) and the GI50 (XF498) was > 100 µM (inactive).
For `COC1(C)CNCC(C)(C)NC(=O)C(C)(OC)CNCC(C)(C)NC1=O` (configuration not stated), the GI50 (CCRF-CEM) was > 100 µM (inactive), the GI50 (EKVX) was > 100 µM (inactive) and the GI50 (SK-OV-3) was > 100 µM (inactive). The GI50 (DMS-273) was > 100 µM (inactive), the GI50 (HOP-62) was > 100 µM (inactive) and the GI50 (K562) was > 100 µM (inactive). For the same molecule, the GI50 (SF-539) was > 100 µM (inactive), the GI50 (HT-29) was > 100 µM (inactive) and the GI50 (SNB-19) was > 100 µM (inactive). The GI50 (RPMI-8226) was > 100 µM (inactive), the GI50 (A498) was > 100 µM (inactive) and the GI50 (SK-MEL-28) was > 100 µM (inactive). For the same molecule, the GI50 (HOP-18) was > 100 µM (inactive), the GI50 (NCI-H460) was > 100 µM (inactive) and the GI50 (HCT-116) was > 100 µM (inactive). The GI50 (UO-31) was > 100 µM (inactive).
In the case of `CC1=CC(O)(c2ccc(-c3ccccc3Cl)cc2)OC1=O` (configuration not stated), the GI50 (CCRF-CEM) is reported as > 100 µM (inactive), the GI50 (EKVX) is reported as > 100 µM (inactive) and the GI50 (SK-OV-3) is reported as > 100 µM (inactive). The GI50 (DMS-273) was > 100 µM (inactive), the GI50 (HOP-62) was > 100 µM (inactive) and the GI50 (K562) was > 100 µM (inactive). For the same molecule, the GI50 (SF-539) was > 100 µM (inactive), the GI50 (HT-29) was > 100 µM (inactive) and the GI50 (SNB-19) was > 100 µM (inactive). The GI50 (RPMI-8226) was > 100 µM (inactive), the GI50 (SK-MEL-28) was > 100 µM (inactive) and the GI50 (HOP-18) was > 100 µM (inactive). The GI50 (NCI-H460) was > 100 µM (inactive) and the GI50 (UO-31) was > 100 µM (inactive).
With `CCC(=O)c1c(NOC2OC(COC(C)=O)C(OC(C)=O)C(OC(C)=O)C2OC(C)=O)nc(OC)n(C)c1=O` (configuration not stated) the GI50 (CCRF-CEM) was > 100 µM (inactive), the GI50 (EKVX) was > 100 µM (inactive) and the GI50 (DMS-273) was > 100 µM (inactive). The GI50 (HOP-62) was > 100 µM (inactive), the GI50 (K562) was > 100 µM (inactive) and the GI50 (SF-539) was 69.2 µM (inactive). For the same molecule, the GI50 (HT-29) was > 100 µM (inactive), the GI50 (SNB-19) was > 100 µM (inactive) and the GI50 (SK-MEL-28) was > 100 µM (inactive). For the same molecule, the GI50 (SR) was > 100 µM (inactive), the GI50 (NCI-H460) was > 100 µM (inactive) and the GI50 (HCT-116) was > 100 µM (inactive). The GI50 (XF498) was > 100 µM (inactive).
`CC(=O)Nc1ccc(-c2nnc(SCC(=O)Nc3ccccc3C)o2)cc1` was tested, and the GI50 (CCRF-CEM) was 61.7 µM (inactive), the GI50 (SK-OV-3) was > 100 µM (inactive) and the GI50 (DMS-273) was 35.4 µM (inactive). The GI50 (HOP-62) was > 100 µM (inactive), the GI50 (K562) was 82.6 µM (inactive) and the GI50 (SF-539) was > 100 µM (inactive). For the same molecule, the GI50 (HT-29) was 38 µM (inactive), the GI50 (RPMI-8226) was 46.3 µM (inactive) and the GI50 (SK-MEL-28) was > 100 µM (inactive). For the same molecule, the GI50 (SR) was 55.5 µM (inactive), the GI50 (HOP-18) was > 100 µM (inactive) and the GI50 (NCI-H460) was 96.8 µM (inactive). For the same molecule, the GI50 (HCT-116) was 15.6 µM (inactive) and the GI50 (UO-31) was 52 µM (inactive).
